# Measurements published in publication PMC8921064 (Archives of Toxicology, 2022).
# How the values were obtained:
# [1] = system: human liver microsomes (HLM); test: Human liver microsomal incubation, metabolite formation quantified by UPLC; details: HLM
# Description: (§1) The incubation mixtures were prepared and incubated in glass vials to avoid plastic binding of the substrates. The glass vials were capped to prevent substrate loss due to volatility. After preincubation of the incubation mixture at 37 °C for 1 min, the enzymatic reaction was initiated by adding microsomes to the incubation mixture which was subsequently incubated at 37 °C for 20 min. The reaction was terminated by adding 100 µl ice-cold acetonitrile followed by vortexing. After 5 min centrifugation at 5000 rpm (4000 × g), 4 °C, the supernatant was collected for ultraperformance liquid chromatography (UPLC) analysis. […] Therefore, a diisopropylether (DIPE) extraction of the metabolites was performed after the reaction was stopped by the addition of 20 µl 10% HClO4. To this end, the incubation mixture (total volume of 220 µl) was extracted three times with 1 ml DIPE. Each time, the upper organic layer was collected and the DIPE was subsequently evaporated from the combined organic fractions with a gentle stream of nitrogen. The residues were dissolved in 100 µl methanol and analyzed by UPLC.
# (§2) The metabolites formed were analyzed and quantified using an Acquity UPLC system equipped with a photodiode array (PDA) detector (Waters, Milford, MA). The metabolites and their parent compound were separated on a reverse phase Acquity UPLC® BEH C18 column ([…], 1.7 µm, Waters, Milford, MA) and detected at wavelengths ranging from 190 to 400 nm. Eluent A was nano-pure water containing 0.1% trifluoroacetic acid (v/v), and eluent B was acetonitrile containing 0.1% trifluoroacetic acid (v/v). The gradient elution started from 90% A and 10% B applied from 0.0 min to 0.5 min, which was changed to 0% A and 100% B from 0.5 to 15.5 min and then kept at 0% A and 100% B from 15.5 min to 18.5 min, changed back to 90% A and 10% B from 18.5 to 18.6 min and then maintained at the starting conditions from 18.6 min until 22 min. The total run time was 22 min using a flow rate of 0.6 ml/min. The temperature of the column was set at 40 °C and that of the autosampler at 10 °C during the UPLC analysis. The injection volume was 3.5 µl. Metabolites were quantified using their peak area at the wavelength specified in Table 1, using calibration curves of available reference compounds. Metabolites were identified by comparing their retention time (RT) and UV spectrum to those of reference chemicals on UPLC. When reference chemicals were not available, metabolite identification by gas chromatography-triple quadrupole mass spectrometry (GC–MS/MS) was performed. The minor metabolites were identified by elution time and mass spectra both on UPLC and GC–MS/MS, and by comparison with available elution and spectral information from the literature.
# (§3) The metabolite concentrations in the microsomal incubation mixtures as quantified by UPLC were used to calculate the rate of the enzymatic conversions in pmol/min/mg microsomal protein. The kinetic parameters KM and Vmax were obtained using a nonlinear regression curve fit applying the Michaelis Menten equation in GraphPad Prism 5 (San Diego, USA). To compare the catalytic efficiency of formation of the different metabolites the intrinsic clearance (Clint) was calculated as Vmax divided by KM.
# S. typhimurium TA98 = details: cited from earlier work
# [2] = system: Salmonella typhimurium TA100; test: Reverse mutation assay (Ames test), TA100; details: for His + revertant colonies TA100 without S9-mix: mean ± SD of 3 plates; for Increase in the number of revertants compared to the concurrent solvent control: TA100, presence of 5% S9-mix, 10–100 µg; for Mutagenicity (conclusion): TA100, positive if more than twofold over control
# Description: (§4) Six concentrations of each compound were tested in triplicate in the absence and presence of 5% (v/v) S9-mix prepared from the livers of Aroclor 1254 treated Sprague–Dawley rats. The S9-mix contained 4 mM NADP, 5.8 mM glucose-6-phosphate, 0.1 M sodium phosphate pH 7.4, 8 mM MgCl2, 33 mM KCl and 5% S9 homogenate. Fresh bacterial cultures were prepared overnight to reach 10^9 cells/ml. The following solutions were pre-incubated in a rotating incubator at 70 rpm and 37 °C, and contained either 0.5 ml S9-mix (in case of S9 presence) or 0.5 ml 0.1 M potassium phosphate pH 7.4 (in case of S9 absence), 0.1 ml of a fresh bacterial culture (10^9 cells/ml) of TA98 or TA100, and 10–100 µg test compound. Top agar was melted and heated to 45 °C. After preincubation, the substrate solutions were added to 3 ml of the molten top agar and mixed by vortexing and the top agar mixture was poured onto a minimal glucose agar plate. After solidification of the top agar, the plates were incubated at 37 °C for 48 h. The number of revertant colonies per plate was automatically counted with the Instem Sorcerer Colony Counter (Staffordshire, UK). In the absence of S9-mix, 2-nitrofluorene (NF) and methylmethanesulfonate (MMS) were tested as positive controls for incubations with TA98 and TA100, respectively. In the presence of S9-mix, 2-aminoanthracene (2AA) was tested as a positive control in both TA98 and TA100. DMSO was tested as a solvent control in both tester strains.
# mouse skin = system: mouse skin; set-up: method as in Buening et al. [1979]; LaVoie et al. [1981]; details: mouse skin painting; ref Buening et al. [1979]; LaVoie et al. [1981]; cited from earlier work
# S. typhimurium TA100 = details: cited from earlier work
# [3] = system: rat liver microsomes (RLM); test: Rat liver microsomal incubation, metabolite formation quantified by UPLC; details: RLM
# Description: as §1, §2, §3
# [4] = system: Salmonella typhimurium TA98; test: Reverse mutation assay (Ames test), TA98; details: for Increase in the number of revertants compared to the concurrent solvent control: TA98, presence of 5% S9-mix, 10–100 µg; for Mutagenicity (conclusion): TA98, positive if more than threefold over control
# Description: as §4, with “and 10–100 µg test compound.” left out
# [5] = Human liver microsomal incubation, metabolite formation quantified by UPLC; details: human, microsomes, pH 7.4
# Description: as §1, §2, §3
# [6] = Rat liver microsomal incubation, metabolite formation quantified by UPLC; details: Sprague-Dawley, rat, microsomes, pH 7.4
# Description: as §1, §2, §3
# [7] = system: Chinese hamster bone marrow cells; set-up: method as in Bayer [1978]; details: in vivo exposure; ref Bayer [1978]; cited from earlier work
# [8] = ref Bucker et al. [1979], Wood et al. [1979]
structure (smiles),measurement,setting,value
Cc1cc2ccccc2c2ccccc12 [9-Methylphenanthrene],"Vmax, formation of 1,2-Dihydro-9-methylphenanthrene-diol RT = 4.27 min",[1]; substrate 9-Methylphenanthrene,15.6 ± 2.4 pmol/min/mg microsomal protein
same,"Vmax, formation of 3,4-Dihydro-9-methylphenanthrene-diol RT = 2.98 min",[1]; substrate 9-Methylphenanthrene,26.1 ± 3.0 pmol/min/mg microsomal protein
same,"Vmax, formation of 9-(Hydroxymethyl)-phenanthrene RT = 5.6 min",[1]; substrate 9-Methylphenanthrene,415.9 ± 43.9 pmol/min/mg microsomal protein
same,"Vmax, formation of 9-Methylphenanthrol RT = 6.28 min",[1]; substrate 9-Methylphenanthrene,27.8 ± 6.7 pmol/min/mg microsomal protein
same,"Vmax, formation of 9-Methylphenanthrol RT = 6.73 min",[1]; substrate 9-Methylphenanthrene,44.9 ± 19.4 pmol/min/mg microsomal protein
same,Increase in revertants,S. typhimurium TA98; ref LaVoie et al. [1983],1.3 fold
same,His + revertant colonies TA100 without S9-mix,[2]; 2 µg/plate,121±7
same,His + revertant colonies TA100 without S9-mix,[2]; 4 µg/plate,109±3
same,His + revertant colonies TA100 without S9-mix,[2]; 10 µg/plate,105±11
same,His + revertant colonies TA100 without S9-mix,[2]; 20 µg/plate,97±20
same,His + revertant colonies TA100 without S9-mix,[2]; 40 µg/plate,59±40
same,Cytotoxicity at the test doses,"[2]; TA100, absence of S9 mix",showed cytotoxicity
same,Increase in the number of revertants compared to the concurrent solvent control,[2],1.9 fold
same,Increase in the number of revertants relative to the historical control data,"[2]; TA100, presence of S9-mix",2.0 fold
same,Mutagenicity (conclusion),[2],indicative of mutagenicity
same,Tumor-initiating activity,mouse skin,neither phenanthrene nor its monomethylated analogs
same,Increase in revertants,S. typhimurium TA100; ref LaVoie et al. [1983],3.0 fold
same,"Vmax, formation of 9-(Hydroxymethyl)-phenanthrene RT = 5.6 min",[3]; substrate 9-Methylphenanthrene,1543 ± 226.6 pmol/min/mg microsomal protein
same,"Vmax, formation of 9-Methylphenanthrol RT = 6.73 min",[3]; substrate 9-Methylphenanthrene,27.2 ± 5.1 pmol/min/mg microsomal protein
same,"Vmax, formation of 9-Methylphenanthrol RT = 6.87 min",[3]; substrate 9-Methylphenanthrene,124.2 ± 29.2 pmol/min/mg microsomal protein
same,"Vmax, formation of 9-Methylphenanthrol RT = 7.2 min",[3]; substrate 9-Methylphenanthrene,41.4 ± 23.4 pmol/min/mg microsomal protein
same,"Vmax, formation of 9-Methylphenanthrol RT = 7.25 min",[3]; substrate 9-Methylphenanthrene,10.2 ± 1.9 pmol/min/mg microsomal protein
same,Increase in the number of revertants compared to the concurrent solvent control,[4],2.5 fold
same,Increase in the number of revertants relative to the historical control data,"[4]; TA98, presence of S9-mix",3.2 fold
same,Mutagenicity (conclusion),[4],indicative of mutagenicity
c1ccc2c(c1)ccc1ccccc12 [Phenanthrene],microsomal CLint,[5],24.2 µL/min/mg
same,"Vmax, formation of 1,2-Dihydro-phenanthrene-diol RT = 3.57 min",[1]; substrate Phenanthrene,152.5 ± 14.4 pmol/min/mg microsomal protein
same,"Vmax, formation of 1-Phenanthrol RT = 6.31 min",[1]; substrate Phenanthrene,125.2 ± 5.4 pmol/min/mg microsomal protein
same,"Vmax, formation of 3,4-Dihydro-phenanthrene-diol RT = 2.13 min",[1]; substrate Phenanthrene,61.5 ± 6.3 pmol/min/mg microsomal protein
same,"Vmax, formation of 3,4-Dihydro-phenanthrene-diol RT = 2.24 min",[1]; substrate Phenanthrene,6.0 ± 0.3 pmol/min/mg microsomal protein
same,"Vmax, formation of 4-Phenanthrol RT = 6.55 min",[1]; substrate Phenanthrene,18.0 ± 3.9 pmol/min/mg microsomal protein
same,"Vmax, formation of 9,10-Dihydro-phenanthene-diol RT = 3.38 min",[1]; substrate Phenanthrene,287.8 ± 17.1 pmol/min/mg microsomal protein
same,Mutagenicity,S. typhimurium TA98; [8],Neither phenanthrene nor its dihydrodiol metabolites were found to be mutagenic
same,Increase in the number of revertants compared to the concurrent solvent control,[2],No increases in the number of revertants were observed
same,Mutagenicity (conclusion),[2],tested negative for mutagenicity
same,Tumor-initiating activity,mouse skin,neither phenanthrene nor its monomethylated analogs
same,Mutagenicity,S. typhimurium TA100; [8],Neither phenanthrene nor its dihydrodiol metabolites were found to be mutagenic
same,microsomal CLint,[6],7.3 µL/min/mg
same,"Vmax, formation of 1,2-Dihydro-phenanthrene-diol RT = 3.57 min",[3]; substrate Phenanthrene,79.3 ± 6.5 pmol/min/mg microsomal protein
same,"Vmax, formation of 1-Phenanthrol RT = 6.31 min",[3]; substrate Phenanthrene,123.9 ± 19.2 pmol/min/mg microsomal protein
same,"Vmax, formation of 3,4-Dihydro-phenanthrene-diol RT = 2.13 min",[3]; substrate Phenanthrene,10.3 ± 1.8 pmol/min/mg microsomal protein
same,"Vmax, formation of 3-Phenanthrol RT = 6.02 min",[3]; substrate Phenanthrene,21.3 ± 2.0 pmol/min/mg microsomal protein
same,"Vmax, formation of 4-Phenanthrol RT = 6.55 min",[3]; substrate Phenanthrene,24.5 ± 5.5 pmol/min/mg microsomal protein
same,"Vmax, formation of 9,10-Dihydro-phenanthene-diol RT = 3.28 min",[3]; substrate Phenanthrene,9.8 ± 0.6 pmol/min/mg microsomal protein
same,"Vmax, formation of 9,10-Dihydro-phenanthene-diol RT = 3.38 min",[3]; substrate Phenanthrene,529.2 ± 43.2 pmol/min/mg microsomal protein
same,DNA adducts,[7],no phenanthrene DNA adducts could be detected
same,Increase in the number of revertants compared to the concurrent solvent control,[4],No increases in the number of revertants were observed
same,Mutagenicity (conclusion),[4],tested negative for mutagenicity
